Test system: in vitro grown Mycobacteria (M. tuberculosis)
Assay: QUM: Quantification of in vitro grown Mycobacteria (in vitro growth fluorescence assay)
Format: cell-based
Conditions: MIC, 80% bacterial growth inhibition, in vitro growth; for MIC: Mycobacterium tuberculosis, read-out: QUM
Text: A 120,000 small molecule compound library was screened using a validated phenotypic cell-based assay (WO2010003533A2). Active compounds from the primary screen were confirmed via dose response in the intracellular (QIM) assay and an in vitro (QUM) assay, wherein the abbreviation “QIM” stands for Quantification of Intracellular Mycobacteria and the abbreviation “QUM” stands for Quantification of in vitro grown Mycobacteria. […] The MIC is the minimum concentration of compound required to obtain 80% bacterial growth inhibition.
The imidazopyridine compounds (scaffolds Ia and Ib; see Table 1) underwent derivatization according to the methods outlined below (Schemes 1-13). Resulting derivatives were examined for inhibitory activity (MIC) using the assays described above (Example 1) and the results are summarized in Table 1.

Compound | MIC [µM] | QUM (μM)
CCc1nc2cc(Cl)ccn2c1C(=O)NCc1ccc(N2CCC(C(=O)N(C)C)CC2)cc1 [Compound 346, 7-Chloro-N-(4-(4-(dimethylcarbamoyl)piperidin-1-yl)benzyl)-2-ethylimidazo[1,2-a]pyridine-3-carboxamide] | < 1 | –
CCc1nc2ccc(C)cn2c1C(=O)NCc1ccc(Oc2ccc(OC(F)(F)F)cc2)cc1 [Compound 255, 2-Ethyl-6-methyl-N-(4-(4-(trifluoromethoxy)phenoxy)benzyl)imidazo[1,2-a]pyridine-3-carboxamide] | < 1 | –
CCc1nc2cc(Cl)ccn2c1C(=O)NCc1ccc(-n2cc3c(c2)CCCC3)cc1 [Compound 225, 7-Chloro-2-ethyl-N-(4-(4,5,6,7-tetrahydro-2H-isoindol-2-yl)benzyl)imidazo[1,2-a]pyridine-3-carboxamide] | < 1 | –
CCc1nc2c(Br)cccn2c1C(=O)NCc1ccc(N2CCOCC2)cc1 [Compound 320, 8-Bromo-2-ethyl-N-(4-morpholinobenzyl)imidazo[1,2-a]pyridine-3-carboxamide] | < 1 | –
CCc1nc2cc(Cl)ccn2c1C(=O)NCc1ccc2oc(-c3ccc(F)cc3)nc2c1 [Compound 336, 7-Chloro-2-ethyl-N-((2-(4-fluorophenyl)benzo[d]oxazol-5-yl)methyl)imidazo[1,2-a]pyridine-3-carboxamide] | < 1 | –
CCc1nc2c(OC)cccn2c1C(=O)NCc1ccc(N2CCN(c3ccc(F)cc3)CC2)cc1 [Compound 115, 2-Ethyl-N-(4-(4-(4-fluorophenyl)piperazin-1-yl)benzyl)-8-methoxyimidazo[1,2-a]pyridine-3-carboxamide] | < 1 | –
CCc1nc2cc(Cl)ccn2c1C(=O)NCc1ccc(N2CCOCC2)c(Cl)c1 [Compound 350, 7-Chloro-N-(3-chloro-4-morpholinobenzyl)-2-ethylimidazo[1,2-a]pyridine-3-carboxamide] | < 1 | –
CCc1nc2c(-c3ccncc3)cccn2c1C(=O)NCc1ccc(N2CCN(c3ccc(F)cc3)CC2)cc1 [Compound 312, 2-Ethyl-N-(4-(4-(4-fluorophenyl)piperazin-1-yl)benzyl)-8-(pyridin-4-yl)imidazo[1,2-a]pyridine-3-carboxamide] | < 1 | –
CCc1nc2cc(Cl)ccn2c1C(=O)NCc1ccc(N2CCC(COC(F)F)CC2)cc1 [Compound 183, 7-Chloro-N-(4-(4-((difluoromethoxy)methyl)piperidin-1-yl)benzyl)-2-ethylimidazo[1,2-a]pyridine-3-carboxamide] | < 1 | –
CCc1nc2cc(C)ccn2c1C(=O)NCc1ccc(OC(F)(F)F)cc1 [Compound 249, 2-Ethyl-7-methyl-N-(4-(trifluoromethoxy)benzyl)imidazo[1,2-a]pyridine-3-carboxamide] | < 1 | –
CCc1nc2cc(Cl)ccn2c1C(=O)NCc1ccc(N2CCC(C(=O)O)CC2)cc1 [Compound 302, 1-(4-((7-Chloro-2-ethylimidazo[1,2-a]pyridine-3-carboxamido)methyl)phenyl)piperidine-4-carboxylic acid] | < 1 | –
CCc1nc2cc(Cl)ccn2c1C(=O)NCc1ccc(N2CC3CCCCC3C2)cc1 (stereo not drawn) [Compound 224, N-(4-(1H-isoindol-2(3H,3aH,4H,5H,6H,7H,7aH)-yl)benzyl)-7-chloro-2-ethylimidazo[1,2-a]pyridine-3-carboxamide] | < 1 | –
CCc1nc2ccccn2c1C(=O)NCc1ccc2oc(-c3ccc(F)cc3)nc2c1 [Compound 334, 2-Ethyl-N-((2-(4-fluorophenyl)benzo[d]oxazol-5-yl)methyl)imidazo[1,2-a]pyridine-3-carboxamide] | < 1 | –
CCc1nc2c(F)cccn2c1C(=O)NCc1ccc(OC(F)(F)F)cc1 [Compound 251, 2-Ethyl-8-fluoro-N-(4-(trifluoromethoxy)benzyl)imidazo[1,2-a]pyridine-3-carboxamide] | < 1 | –
6-Chloro-N-(4-(4-(cyclopentyloxymethyl)piperidin-1-yl)benzyl)-2-ethylimidazo[1,2-a]pyridine-3-carboxamide [Compound 293] | – | +++ (+++ indicates <1 uM)
CCc1nc2cc(Cl)ccn2c1C(=O)NCc1ccc(-c2ccc(C=O)cc2)cc1 [Compound 252, 7-Chloro-2-ethyl-N-((4′-formylbiphenyl-4-yl)methyl)imidazo[1,2-a]pyridine-3-carboxamide] | < 1 | –
CCc1nc2ccc(Cl)cn2c1C(=O)NCc1ccc(C(=O)NCc2ccc(C(=O)N3CCOCC3)cc2)cc1 [Compound 332, 6-Chloro-2-ethyl-N-(4-((4-(morpholine-4-carbonyl)benzyl)carbamoyl)benzyl) imidazo[1,2-a]pyridine-3-carboxamide] | > 20 | –
CCc1nc2c(Br)cccn2c1C(=O)NCc1ccc(N2CCN(c3ccc(F)cc3)CC2)cc1 [Compound 305, 8-Bromo-2-ethyl-N-(4-(4-(4-fluorophenyl)piperazin-1-yl)benzyl)imidazo[1,2-a]pyridine-3-carboxamide] | < 1 | –

Compound | MIC [µM] | QUM (μM)
CCOC(=O)C1CCN(c2ccc(CNC(=O)c3c(CC)nc4ccc(Cl)cn34)cc2)CC1 [Compound 300, Ethyl 1-(4-((6-chloro-2-ethylimidazo[1,2-a]pyridine-3-carboxamido)methyl)phenyl)piperidine-4-carboxylate] | < 1 | –
CCOC(=O)C1CCN(c2ccc(CNC(=O)c3c(CC)nc4cc(Cl)ccn34)cc2)CC1 [Compound 301, Ethyl 1-(4-((7-chloro-2-ethylimidazo[1,2-a]pyridine-3-carboxamido)methyl)phenyl)piperidine-4-carboxylate] | < 1 | –
CCc1nc2ccc(OC)cn2c1C(=O)NCc1ccc(N2CCOCC2)cc1 [Compound 313] | < 1 | –
CCc1nc2cc(OC)ccn2c1C(=O)NCc1ccc(N2CCOCC2)cc1 [Compound 314, 2-Ethyl-7-methoxy-N-(4-morpholinobenzyl)imidazo[1,2-a]pyridine-3-carboxamide] | < 1 | –
CCc1nc2ccc(Cl)cn2c1C(=O)NCc1ccc2oc(-c3ccc(F)cc3)nc2c1 [Compound 335, 6-Chloro-2-ethyl-N-((2-(4-fluorophenyl)benzo[d]oxazol-5-yl)methyl)imidazo[1,2-a]pyridine-3-carboxamide] | < 1 | –
CCc1nc2c(-c3ccncc3)cccn2c1C(=O)NCc1ccc(N2CCOCC2)cc1 [Compound 327, 2-Ethyl-N-(4-morpholinobenzyl)-8-(pyridin-4-yl)imidazo[1,2-a]pyridine-3-carboxamide] | > 20 | –
CCc1nc2cc(Cl)ccn2c1C(=O)NCc1ccc(C(=O)N2CCOCC2)cc1 [Compound 333, 7-Chloro-2-ethyl-N-(4-(morpholine-4-carbonyl)benzyl)imidazo[1,2-a]pyridine-3-carboxamide] | > 20 | –
CCc1nc2cc(Cl)ccn2c1C(=O)NCc1ccc(N2CCC(COC3CCCC3)CC2)cc1 [Compound 169, 7-Chloro-N-(4-(4-(cyclopentyloxymethyl)piperidin-1-yl)benzyl)-2-ethylimidazo[1,2-a]pyridine-3-carboxamide] | < 1 | –
CCc1nc2cc(Cl)ccn2c1C(=O)NCc1ccc(N2CCC(c3ccc(OC(F)(F)F)cc3)CC2)cc1 [Compound 290, 7-Chloro-2-ethyl-N-(4-(4-(4-(trifluoromethoxy)phenyl)piperidin-1-yl)benzyl)imidazo[1,2-a]pyridine-3-carboxamide] | < 1 | –
CCc1nc2cc(OC)ccn2c1C(=O)NCc1ccc(N2CCN(c3ccc(F)cc3)CC2)cc1 [Compound 114, 2-Ethyl-N-(4-(4-(4-fluorophenyl)piperazin-1-yl)benzyl)-7-methoxyimidazo[1,2-a]pyridine-3-carboxamide] | < 1 | –
CCc1nc2cc(Cl)ccn2c1C(=O)NCc1ccc(N2CC3CC=CCC3C2)cc1 (stereo not drawn) [Compound 223, 7-Chloro-N-(4-(3a,4-dihydro-1H-isoindol-2(3H,7H,7aH)-yl)benzyl)-2-ethylimidazo[1,2-a]pyridine-3-carboxamide] | < 1 | –
CCc1nc2cc(Cl)ccn2c1C(=O)OCc1ccc(Oc2ccc(F)cc2)cc1 [Compound 264] | < 1 | –
CCc1nc2ccc(Cl)cn2c1C(=O)NCc1ccc(N2CCC(C(=O)O)CC2)cc1 [Compound 220, 1-(4-((6-Chloro-2-ethylimidazo[1,2-a]pyridine-3-carboxamido)methyl)phenyl)piperidine-4-carboxylic acid] | < 1 | –
CCc1nc2c(OC)cccn2c1C(=O)NCc1ccc(N2CCOCC2)cc1 [Compound 318, 2-Ethyl-8-methoxy-N-(4-morpholinobenzyl)imidazo[1,2-a]pyridine-3-carboxamide] | < 1 | –
CCc1nc2ccc(Cl)cn2c1C(=O)NCc1ccc(N2CCC(c3ccc(OC(F)(F)F)cc3)CC2)cc1 [Compound 289, 6-Chloro-2-ethyl-N-(4-(4-(4-(trifluoromethoxy)phenyl)piperidin-1-yl)benzyl)imidazo[1,2-a]pyridine-3-carboxamide] | < 1 | –
CCc1nc2ccc(Cl)cn2c1C(=O)NCc1ccc(N2CCC(OCc3ccc(F)cc3)CC2)cc1 [Compound 347, 6-Chloro-2-ethyl-N-(4-(4-(4-fluorobenzyloxy)piperidin-1-yl)benzyl)imidazo[1,2-a]pyridine-3-carboxamide] | < 1 | –
CCc1nc2cc(Br)ccn2c1C(=O)NCc1ccc(OC(F)(F)F)cc1 [Compound 250, 7-Bromo-2-ethyl-N-(4-(trifluoromethoxy)benzyl)imidazo[1,2-a]pyridine-3-carboxamide] | < 1 | –
CCc1nc2ccc(Cl)cn2c1C(=O)NCc1ccc(N2CCC(C(=O)N(C)C)CC2)cc1 [Compound 345, 6-Chloro-N-(4-(4-(dimethylcarbamoyl)piperidin-1-yl)benzyl)-2-ethylimidazo[1,2-a]pyridine-3-carboxamide] | < 1 | –
